For the test, the target named is T1, Bcl-2 protein (Recombinant Human Bcl-2 Protein) (Homo sapiens, UniProt P10415).
T1 construct: purchased Novus NBP2-34889
As to the kind of experiment: Binding evaluation of mixture library compounds to Bcl-2 using AS-MS (affinity selection mass spectrometry). As to conditions: for ASMS ratio (%) n = 1: replicate n = 1; for ASMS ratio (%) n = 1 / ASMS ratio (%) n = 2: ASMS Ratio(%)=(A−C)/B×100; for ASMS ratio (%) n = 2: replicate n = 2. The procedure, abridged: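 ASMS Ratio (%) was calculated as (A−C)/B×100, where A is the protein sample after SEC, B the protein-free sample without SEC and C the protein-free sample after SEC. Each compound was at […] in a 1200-member pool with 20 μM Bcl-2, incubated 1 h at 23° C.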

Where [1] appears, read: AS-MS, mixture of 1200 compounds, Bcl-2.
Setting [2] is: AS-MS on the mixture of 1200 library compounds.

T1 sequence (P10415 whole entry): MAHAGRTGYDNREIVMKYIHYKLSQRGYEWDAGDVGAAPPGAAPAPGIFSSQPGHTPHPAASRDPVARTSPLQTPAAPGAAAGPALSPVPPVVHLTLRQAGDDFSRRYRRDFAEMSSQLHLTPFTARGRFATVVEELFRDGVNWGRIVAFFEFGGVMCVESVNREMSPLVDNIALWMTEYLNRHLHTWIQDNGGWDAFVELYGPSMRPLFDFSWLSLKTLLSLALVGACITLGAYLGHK

`CCOc1cccc(-c2cc(OC)c(CN3CCN(c4ccc(C(=O)N(CC)CC)nn4)CC3)c(OC)c2)c1` [B4J085-01, 6-[4-[[4-(3-Ethoxyphenyl)-2,6-dimethoxyphenyl]methyl]piperazin-1-yl]-N,N-diethylpyridazine-3-carboxamide]: under “AS-MS, mixture library, Bcl-2”, the “ASMS ratio (%) n = 1” value turned out to be 0.0% and the “ASMS ratio (%) n = 2” value is 2.8%. Take `CCOc1cccc(-c2csc(CN3CCN(c4ccc(C(=O)NS(=O)(=O)CCC(F)(F)F)cc4)CC3)c2)c1` [B2N067-01, 4-[4-[[4-(3-Ethoxyphenyl)thiophen-2-yl]methyl]piperazin-1-yl]-N-(3,3,3-trifluoropropylsulfonyl)benzamide]: the “ASMS ratio (%)” value is 0.0% (n = 1) and 0.0% (n = 2).

For the molecule `CCOc1cncc(C#Cc2cncc(C(=O)N3CCN(c4ccc(C(=O)NS(=O)(=O)CCC(F)(F)F)nn4)CC3)c2)c1` [B2N010-01, 6-[4-[5-[2-(5-Ethoxypyridin-3-yl)ethynyl]pyridine-3-carbonyl]piperazin-1-yl]-N-(3,3,3-trifluoropropylsulfonyl)pyridazine-3-carboxamide], the “ASMS ratio (%)” value was determined as 0.0% (n = 1) and 0.0% (n = 2). With `CCOc1cncc(C#Cc2ccccc2C(=O)N2CCN(c3ccc(C(=O)NCC45CC6CC(CC(C6)C4)C5)nn3)CC2)c1` [B1A008-01, N-(1-Adamantylmethyl)-6-[4-[2-[2-(5-ethoxypyridin-3-yl)ethynyl]benzoyl]piperazin-1-yl]pyridazine-3-carboxamide], under setting [1], the “ASMS ratio (%) n = 1” value is reported as 3.0% and the “ASMS ratio (%) n = 2” value is reported as 0.0%. With “4-[4-[4-(3-Ethoxyphenyl)naphthalene-1-carbonyl]piperazin-1-yl]-N-propylbenzamide [B1M073-01]”, under setting [1], the “ASMS ratio (%) n = 1” value came to 0.4% and the “ASMS ratio (%) n = 2” value is recorded as −0.5%. Regarding “4-[4-[4-(3-Ethoxyphenyl)-3-fluorobenzoyl]piperazin-1-yl]-N-propylbenzamide [B1M090-01]”, under setting [2], the “ASMS ratio (%) n = 1” value was determined as 0.0% and the “ASMS ratio (%) n = 2” value amounted to 0.0%.

`CCOc1cncc(-c2ccccc2CN2CCN(c3ccc(C(=O)Nc4ccc(OC)cc4)nn3)CC2)c1` [B1O072-01, 6-[4-[[2-(5-Ethoxypyridin-3-yl)phenyl]methyl]piperazin-1-yl]-N-(4-methoxyphenyl)pyridazine-3-carboxamide]: under setting [2], the “ASMS ratio (%) n = 1” value turned out to be 4.1% and the “ASMS ratio (%) n = 2” value is 0.4%. Take `CCOc1cncc(-c2ccc(C(C)N3CCN(c4ccc(C(=O)NS(=O)(=O)c5ccc(NCCSc6ccccc6)c([N+](=O)[O-])c5)cc4)CC3)c(F)c2)c1` (stereo not drawn) [B2Q100-01, 4-[4-[1-[4-(5-Ethoxypyridin-3-yl)-2-fluorophenyl]ethyl]piperazin-1-yl]-N-[3-nitro-4-(2-phenylsulfanylethylamino)phenyl]sulfonylbenzamide]: where the note is “AS-MS, mixture library, Bcl-2”, the “ASMS ratio (%) n = 1” value stood at 0.0% and the “ASMS ratio (%) n = 2” value turned out to be 10.7%. `CCOc1cccc(-c2ccc(CN3CCN(c4ccc(C(=O)N(C)CC56CC7CC(CC(C7)C5)C6)cc4)CC3)c3ccccc23)c1` [B3A065-01, N-(1-Adamantylmethyl)-4-[4-[[4-(3-ethoxyphenyl)naphthalen-1-yl]methyl]piperazin-1-yl]-N-methylbenzamide]: under setting [2], the “ASMS ratio (%) n = 1” value was 0.0% and the “ASMS ratio (%) n = 2” value was 0.0%. Turning to `CCOc1cccc(-c2ccc(C(=O)N3CCN(c4ccc(C(=O)Nc5ccc(OC)cc5)cc4)CC3)cc2C)c1` [B1O025-01, 4-[4-[4-(3-Ethoxyphenyl)-3-methylbenzoyl]piperazin-1-yl]-N-(4-methoxyphenyl)benzamide], under setting [2], the “ASMS ratio (%) n = 1” value is −0.4% and the “ASMS ratio (%) n = 2” value was −4.5%.

`CCOc1cccc(C#Cc2cc(C(=O)N3CCN(c4ccc(C(=O)NS(C)(=O)=O)nn4)CC3)cc(C(F)(F)F)c2)c1` [B2I019-01, 6-[4-[3-[2-(3-Ethoxyphenyl)ethynyl]-5-(trifluoromethyl)benzoyl]piperazin-1-yl]-N-methylsulfonylpyridazine-3-carboxamide]: the “ASMS ratio (%) n = 1” value (AS-MS, mixture library, Bcl-2) is listed as 0.0%. With `CCOc1cccc(-c2ccc(C(C)N3CCN(c4ccc(C(=O)NS(=O)(=O)CC56CC7CC(CC(C7)C5)C6)cc4)CC3)cc2)c1` (stereo not drawn) [B2A097-01, N-(1-Adamantylmethylsulfonyl)-4-[4-[1-[4-(3-ethoxyphenyl)phenyl]ethyl]piperazin-1-yl]benzamide], for the setting “AS-MS, mixture library, Bcl-2”, the “ASMS ratio (%) n = 1” value was 9.7% and the “ASMS ratio (%) n = 2” value was found to be 0.4%.

Regarding `CCOc1cccc(-c2cc(CN3CCN(c4ccc(C(=O)Nc5ccc(OC)cc5)cc4)CC3)cc(OC(F)(F)F)c2)c1` [B1O063-01, 4-[4-[[3-(3-Ethoxyphenyl)-5-(trifluoromethoxy)phenyl]methyl]piperazin-1-yl]-N-(4-methoxyphenyl)benzamide], under setting [2], the “ASMS ratio (%) n = 1” value is given as 3.5% and the “ASMS ratio (%) n = 2” value is recorded as −4.1%.

Turning to `CCOc1cccc(-c2csc(CN3CCN(c4ccc(C(=O)NS(=O)(=O)C(C)(C)C)nn4)CC3)c2)c1` [B2L093-01, N-tert-Butylsulfonyl-6-[4-[[4-(3-ethoxyphenyl)thiophen-2-yl]methyl]piperazin-1-yl]pyridazine-3-carboxamide], the “ASMS ratio (%)” value (n = 2) was found to be 0.0%.

As to `CCOc1cccc(-c2ccccc2CCC(=O)N2CCN(c3ccc(C(=O)NS(C)(=O)=O)nn3)CC2)c1` [B2I011-01, 6-[4-[3-[2-(3-Ethoxyphenyl)phenyl]propanoyl]piperazin-1-yl]-N-methylsulfonylpyridazine-3-carboxamide], where the note is “AS-MS, mixture library, Bcl-2”, the “ASMS ratio (%) n = 1” value stood at 0.0% and the “ASMS ratio (%) n = 2” value stood at 0.0%. As for `CCOc1cccc(-c2cnn(-c3cc(C(=O)N4CCN(c5ccc(C(=O)NCC(F)(F)F)nn5)CC4)cc(C(F)(F)F)c3)c2)c1` [B1K021-01, 6-[4-[3-[4-(3-Ethoxyphenyl)pyrazol-1-yl]-5-(trifluoromethyl)benzoyl]piperazin-1-yl]-N-(2,2,2-trifluoroethyl)pyridazine-3-carboxamide], under setting [1], the “ASMS ratio (%) n = 1” value is reported as −0.5% and the “ASMS ratio (%) n = 2” value is on record as −1.9%. On to `CCOc1cccc(-c2cc(CN3CCN(c4ccc(C(=O)NS(=O)(=O)CC56CC7CC(CC(C7)C5)C6)cc4)CC3)cc(OC(F)(F)F)c2)c1` [B2A063-01, N-(1-Adamantylmethylsulfonyl)-4-[4-[[3-(3-ethoxyphenyl)-5-(trifluoromethoxy)phenyl]methyl]piperazin-1-yl]benzamide], for which, for the setting “AS-MS, mixture library, Bcl-2”, the “ASMS ratio (%) n = 1” value is given as 0.5% and the “ASMS ratio (%) n = 2” value is on record as 3.3%. The matching figures for `CCOc1cccc(C#Cc2cc(C(=O)N3CCN(c4ccc(C(=O)NS(=O)(=O)CC56CC7CC(CC(C7)C5)C6)cc4)CC3)cc(C(F)(F)F)c2)c1` [B2A041-01, N-(1-Adamantylmethylsulfonyl)-4-[4-[3-[2-(3-ethoxyphenyl)ethynyl]-5-(trifluoromethyl)benzoyl]piperazin-1-yl]benzamide]: 0.0% and −3.7%. Take `CCOc1cncc(-c2cc(C(=O)N3CCN(c4ccc(C(=O)NS(=O)(=O)CCC(F)(F)F)nn4)CC3)cc(C(C)(C)C)c2)c1` [B2N016-01, 6-[4-[3-tert-Butyl-5-(5-ethoxypyridin-3-yl)benzoyl]piperazin-1-yl]-N-(3,3,3-trifluoropropylsulfonyl)pyridazine-3-carboxamide]: the “ASMS ratio (%)” value is, setting by setting: (n = 1) 0.0%; (n = 2) 0.0%. Turning to `CCOc1cccc(-c2ccccc2CN2CCN(c3ccc(C(=O)NS(=O)(=O)c4ccc(NCCSc5ccccc5)c(C(F)(F)F)c4)nn3)CC2)c1` [B2R071-01, 6-[4-[[2-(3-Ethoxyphenyl)phenyl]methyl]piperazin-1-yl]-N-[4-(2-phenylsulfanylethylamino)-3-(trifluoromethyl)phenyl]sulfonylpyridazine-3-carboxamide], the “ASMS ratio (%)” value is, setting by setting: (n = 1) 14.3%; (n = 2) −9.0%. For the molecule `CCOc1cccc(-c2ccccc2CN2CCN(c3ccc(C(=O)N(C)CC45CC6CC(CC(C6)C4)C5)cc3)CC2)c1` [B3A045-01, N-(1-Adamantylmethyl)-4-[4-[[2-(3-ethoxyphenyl)phenyl]methyl]piperazin-1-yl]-N-methylbenzamide], under setting [2], the “ASMS ratio (%) n = 1” value is 3.2% and the “ASMS ratio (%) n = 2” value stood at 2.5%. On to `CCOc1cncc(-c2ccccc2CN2CCN(c3ccc(C(=O)NS(C)(=O)=O)nn3)CC2)c1` [B2I072-01, 6-[4-[[2-(5-Ethoxypyridin-3-yl)phenyl]methyl]piperazin-1-yl]-N-methylsulfonylpyridazine-3-carboxamide], for which the “ASMS ratio (%)” value is, setting by setting: (n = 1) 0.8%; (n = 2) 1.3%. `CCOc1cccc(C#Cc2ccccc2CN2CCN(c3ccc(C(=O)NS(=O)(=O)c4ccc(NCCSc5ccccc5)c([N+](=O)[O-])c4)cc3)CC2)c1` [B2Q069-01]: where the note is “AS-MS, mixture library, Bcl-2”, the “ASMS ratio (%) n = 1” value worked out at 8.8% and the “ASMS ratio (%) n = 2” value is 11.0%. In the case of “4-[4-[4-(5-Ethoxypyridin-3-yl)-3-methylbenzoyl]piperazin-1-yl]-N-propylbenzamide [B1M039-01]”, under setting [1], the “ASMS ratio (%) n = 1” value worked out at 2.3% and the “ASMS ratio (%) n = 2” value was −0.6%.

As for `CCOc1cncc(-c2ccccc2CN2CCN(c3ccc(C(=O)NS(=O)(=O)C(C)(C)C)nn3)CC2)c1` [B2L072-01, N-tert-Butylsulfonyl-6-[4-[[2-(5-ethoxypyridin-3-yl)phenyl]methyl]piperazin-1-yl]pyridazine-3-carboxamide], the “ASMS ratio (%)” value (n = 1) is listed as −10.7% and the “ASMS ratio (%)” value (n = 2) was 8.3%.

Values taken from patent publication US20240132431A1, “METHOD FOR ALKYLATING ACIDIC FUNCTIONAL GROUP” (Chugai Seiyaku Kabushiki Kaisha, priority 2021, published 2024).
